Measurements from publication PMC9120017, “Inhibition mechanism of the chloride channel TMEM16A by the pore blocker 1PBC” (Nature Communications, 2022).
Read-outs that look alike come from different tables or passages of the source.

Target: T1, mouse TMEM16A mutant V599A (Mus musculus, UniProt Q8BHY3, V599A)
T1 construct: expressed in transfected cells; host or cells: HEK293T
T1 sequence (Q8BHY3 1-960 V599A): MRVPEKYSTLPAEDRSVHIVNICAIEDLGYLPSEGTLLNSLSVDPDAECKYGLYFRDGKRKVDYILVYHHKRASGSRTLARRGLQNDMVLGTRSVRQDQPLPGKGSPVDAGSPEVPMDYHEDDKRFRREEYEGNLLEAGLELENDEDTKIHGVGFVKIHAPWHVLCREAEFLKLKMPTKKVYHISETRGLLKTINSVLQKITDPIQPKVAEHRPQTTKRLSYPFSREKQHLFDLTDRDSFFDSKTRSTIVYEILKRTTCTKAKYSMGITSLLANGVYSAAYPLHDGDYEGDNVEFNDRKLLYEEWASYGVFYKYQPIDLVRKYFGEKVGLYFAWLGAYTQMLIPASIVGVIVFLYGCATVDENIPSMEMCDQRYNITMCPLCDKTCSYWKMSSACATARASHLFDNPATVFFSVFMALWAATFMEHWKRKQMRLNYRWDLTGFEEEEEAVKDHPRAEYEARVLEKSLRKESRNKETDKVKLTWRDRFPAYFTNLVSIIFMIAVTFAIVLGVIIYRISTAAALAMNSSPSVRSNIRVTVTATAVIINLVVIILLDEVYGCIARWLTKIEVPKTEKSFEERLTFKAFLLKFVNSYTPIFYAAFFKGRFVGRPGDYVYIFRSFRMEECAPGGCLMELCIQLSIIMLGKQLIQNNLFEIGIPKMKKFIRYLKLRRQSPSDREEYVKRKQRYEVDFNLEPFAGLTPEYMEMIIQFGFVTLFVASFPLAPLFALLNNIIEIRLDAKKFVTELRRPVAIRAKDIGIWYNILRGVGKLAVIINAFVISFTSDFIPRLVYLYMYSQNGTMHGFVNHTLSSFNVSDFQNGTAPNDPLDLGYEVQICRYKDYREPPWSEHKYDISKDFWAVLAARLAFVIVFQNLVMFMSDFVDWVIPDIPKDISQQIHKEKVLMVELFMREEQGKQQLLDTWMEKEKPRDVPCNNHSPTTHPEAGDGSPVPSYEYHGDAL
Test: Inside-out patch recording of 1PBC block, mutant V599A
Type: cell-based
Details: for IC50: 15 µM Ca2+
Method: HEK293T cells (ATCC CRL-1573) were maintained in Dulbecco’s modified Eagle’s medium (DMEM; Sigma-Aldrich) supplemented with 10 U ml^−1 penicillin, 0.1 mg ml^−1 streptomycin (Sigma-Aldrich), 2 mM L-glutamine (Sigma-Aldrich), and 10% FBS (Sigma-Aldrich) in a humidified atmosphere containing 5% CO2 at 37 °C. HEK293S GnTI^− cells (ATCC CRL-3022) were maintained in HyClone HyCell TransFx-H medium (GE Healthcare) supplemented with 10 U ml^−1 penicillin, 0.1 mg ml^−1 streptomycin, 4 mM L-glutamine, 0.15% poloxamer 188 (Sigma-Aldrich), and 1% FBS in an atmosphere containing 5% CO2 at 185 rpm at 37 °C. The ac splice variant of mouse TMEM16A (UniProt ID: Q8BHY3), mouse TMEM16B (UniProt ID: Q8CFW1), or mouse TMEM16F (UniProt ID: Q6P9J9) bearing a 3C cleavage site, a Venus YFP, a Myc tag, and a Streptavidin-binding peptide (SBP) downstream of the open reading frame in a modified pcDNA3.1 vector (Invitrogen) were used as described previously[21],[31]. Mutations were introduced using a modified QuikChange method[58] and were verified by sequencing.
HEK293T cells were transfected with 3–4 μg DNA per 6 cm Petri dish using the calcium phosphate co-precipitation method and were used within 24–96 h after transfection. Recordings were performed on inside-out patches excised from HEK293T cells expressing the construct of interest. Patch pipettes were pulled from borosilicate glass capillaries (O.D. 1.5 mm, I.D. 0.86 mm, Sutter Instrument) and were fire-polished with a microforge (Narishige) before use. Pipette resistance was typically 3–8 MΩ when filled with the recording solutions detailed below. Seal resistance was typically 4 GΩ or higher. Voltage-clamp recordings were made using Axopatch 200B, Digidata 1550, and Clampex 10.7 (Molecular Devices). Analog signals were filtered with the in-built 4-pole Bessel filter at 10 kHz and were digitized at 20 kHz. Solution exchange was achieved using a gravity-fed system through a theta glass pipette mounted on an ultra-fast piezo-driven stepper (Siskiyou). […] All recordings were performed at 20 °C.
A symmetrical ionic condition was used throughout. Stock solution with Ca^2+-EGTA contained 150 mM NaCl, 5.99 mM Ca(OH)2, 5 mM EGTA, and 10 mM HEPES at pH 7.40. Stock solution with EGTA contained 150 mM NaCl, 5 mM EGTA, and 10 mM HEPES at pH 7.40. Free Ca^2+ concentrations were adjusted by mixing the stock solutions at the required ratios calculated using the WEBMAXC program (http://web.stanford.edu/~cpatton/webmaxcS.htm). Patch pipettes were filled with the stock solution with Ca^2+-EGTA, which has a free Ca^2+ concentration of 1 mM. 1PBC (ChemBridge) stock was reconstituted in anhydrous DMSO (Sigma-Aldrich) at 100 mM and stored at −20 °C. Working solutions with 1PBC were prepared by serial dilution. Unless otherwise stated, experiments were performed at a saturating Ca^2+ concentration as shown in Supplementary Table 1 and the primary data were corrected for current rundown as described previously[21],[25].
Concentration-response relations, obtained from the ratio of the I-V plots before and after the application of the blocker, were fitted to the Hill equation,1 I/Imax=1/1+IC50/[blocker]^h where I/Imax is the normalized current responses, IC50 defines the concentration at which inhibition is at its half-maximum, and h is the Hill coefficient.

SMILES: N#Cc1c(C(F)(F)F)cc(O)n2c1nc1ccccc12 [1PBC]
- IC50 (0 mV): 69.5 µM
- remaining activity at 3 µM (0 mV, 1PBC conc 3, read-out: relative current in 1PBC (avr)): 93.5%
- remaining activity at 10 µM (0 mV, 1PBC conc 10, read-out: relative current in 1PBC (avr)): 87.7%
- remaining activity at 30 µM (0 mV, 1PBC conc 30, read-out: relative current in 1PBC (avr)): 72%
- remaining activity at 100 µM (0 mV, 1PBC conc 100, read-out: relative current in 1PBC (avr)): 39.4%
- remaining activity at 3 µM (3 µM 1PBC, +80 mV, saturating Ca2+ (15 µM), read-out: I/Imax): 93.3%
- remaining activity at 3 µM (3 µM 1PBC, -80 mV, saturating Ca2+ (15 µM), read-out: I/Imax): 94.9%
- remaining activity at 10 µM (10 µM 1PBC, +80 mV, saturating Ca2+ (15 µM), read-out: I/Imax): 84%
- remaining activity at 10 µM (10 µM 1PBC, -80 mV, saturating Ca2+ (15 µM), read-out: I/Imax): 91.7%
- remaining activity at 30 µM (30 µM 1PBC, +80 mV, saturating Ca2+ (15 µM), read-out: I/Imax): 62.6%
- remaining activity at 30 µM (30 µM 1PBC, -80 mV, saturating Ca2+ (15 µM), read-out: I/Imax): 78.1%
- remaining activity at 100 µM (100 µM 1PBC, +80 mV, saturating Ca2+ (15 µM), read-out: I/Imax): 27.8%
- remaining activity at 100 µM (100 µM 1PBC, -80 mV, saturating Ca2+ (15 µM), read-out: I/Imax): 50.8%
- IC50 (20 mV): 61.3 µM
- remaining activity at 3 µM (20 mV, 1PBC conc 3, read-out: relative current in 1PBC (avr)): 93.3%
- remaining activity at 10 µM (20 mV, 1PBC conc 10, read-out: relative current in 1PBC (avr)): 86.6%
- remaining activity at 30 µM (20 mV, 1PBC conc 30, read-out: relative current in 1PBC (avr)): 69.3%
- remaining activity at 100 µM (20 mV, 1PBC conc 100, read-out: relative current in 1PBC (avr)): 36%
- IC50 (40 mV): 55.5 µM
- remaining activity at 3 µM (40 mV, 1PBC conc 3, read-out: relative current in 1PBC (avr)): 93.6%
- remaining activity at 10 µM (40 mV, 1PBC conc 10, read-out: relative current in 1PBC (avr)): 86.2%
- remaining activity at 30 µM (40 mV, 1PBC conc 30, read-out: relative current in 1PBC (avr)): 67.1%
- remaining activity at 100 µM (40 mV, 1PBC conc 100, read-out: relative current in 1PBC (avr)): 32.9%
- IC50 (60 mV): 48.9 µM
- remaining activity at 3 µM (60 mV, 1PBC conc 3, read-out: relative current in 1PBC (avr)): 92.4%
- remaining activity at 10 µM (60 mV, 1PBC conc 10, read-out: relative current in 1PBC (avr)): 84.6%
- remaining activity at 30 µM (60 mV, 1PBC conc 30, read-out: relative current in 1PBC (avr)): 64.2%
- remaining activity at 100 µM (60 mV, 1PBC conc 100, read-out: relative current in 1PBC (avr)): 30%
- log-fold IC50 (change of mutant vs WT) (80 mV): 1.35
- IC50 (80 mV): 45.8 µM
- remaining activity at 3 µM (80 mV, 1PBC conc 3, read-out: relative current in 1PBC (avr)): 93.3%
- remaining activity at 10 µM (80 mV, 1PBC conc 10, read-out: relative current in 1PBC (avr)): 84%
- remaining activity at 30 µM (80 mV, 1PBC conc 30, read-out: relative current in 1PBC (avr)): 62.6%
- remaining activity at 100 µM (80 mV, 1PBC conc 100, read-out: relative current in 1PBC (avr)): 27.8%
- IC50 (100 mV): 45 µM
- remaining activity at 3 µM (100 mV, 1PBC conc 3, read-out: relative current in 1PBC (avr)): 94.2%
- remaining activity at 10 µM (100 mV, 1PBC conc 10, read-out: relative current in 1PBC (avr)): 83.7%
- remaining activity at 30 µM (100 mV, 1PBC conc 30, read-out: relative current in 1PBC (avr)): 62.5%
- remaining activity at 100 µM (100 mV, 1PBC conc 100, read-out: relative current in 1PBC (avr)): 26.8%
- IC50 (120 mV): 45.1 µM
- remaining activity at 3 µM (120 mV, 1PBC conc 3, read-out: relative current in 1PBC (avr)): 95.5%
- remaining activity at 10 µM (120 mV, 1PBC conc 10, read-out: relative current in 1PBC (avr)): 83.7%
- remaining activity at 30 µM (120 mV, 1PBC conc 30, read-out: relative current in 1PBC (avr)): 62.1%
- remaining activity at 100 µM (120 mV, 1PBC conc 100, read-out: relative current in 1PBC (avr)): 27%
- IC50 (140 mV): 48.5 µM
- remaining activity at 3 µM (140 mV, 1PBC conc 3, read-out: relative current in 1PBC (avr)): 97.8%
- remaining activity at 10 µM (140 mV, 1PBC conc 10, read-out: relative current in 1PBC (avr)): 86.2%
- remaining activity at 30 µM (140 mV, 1PBC conc 30, read-out: relative current in 1PBC (avr)): 63.1%
- remaining activity at 100 µM (140 mV, 1PBC conc 100, read-out: relative current in 1PBC (avr)): 28.2%
